Test in all cases: In vitro antibacterial activity, agar dilution MIC
Common to all, as to assay type: cell-based
On the technique in general: In agar dilution the substance is mixed into plates at graded concentrations.

The subject of one test is Candida albicans CCH 442. The following applies: code TT: Candida albicans CCH 442; BHI agar, 35-37° C., 20 to 24 hours; unit assumed. The procedure: (§1) Representative compounds of the present invention were assayed in vitro for antibacterial activity as follows: Twelve petri dishes containing successive aqueous dilutions of the test compound mixed with 10 mL of sterilized Brain Heart Infusion (BHI) agar (Difco 0418-01-5) were prepared. Each plate was inoculated with 1:100 (or 1:10 for slow-growing strains, such as Micrococcus and Streptococcus) dilutions of up to 32 different microorganisms, using a Steers replicator block. The inoculated plates were incubated at 35-37° C. for 20 to 24 hours. In addition, a control plate, using BHI agar containing no test compound, was prepared and incubated at the beginning and end of each test.
(§2) An additional plate containing a compound having known susceptibility patterns for the organisms being tested and belonging to the same antibiotic class as the test compound was also prepared and incubated as a further control, as well as to provide test-to-test comparability. Erythromycin A was used for this purpose.
(§3) After incubation, each plate was visually inspected. The minimum inhibitory concentration (MIC) was defined as the lowest concentration of drug yielding no growth, a slight haze, or sparsely isolated colonies on the inoculum spot as compared to the growth control.

The subject of a further test is Escherichiacoli JUHL. Conditions: code QQ: Escherichiacoli JUHL; BHI agar, 35-37° C., 20 to 24 hours; unit assumed. Here is the method:
as §1, §2, §3

The next test deals with Escherichiacoli SS. Conditions: code RR: Escherichiacoli SS; BHI agar, 35-37° C., 20 to 24 hours; unit assumed. Here is the method: as §1, §2, §3
Test [1] relates to Haemophilislnfluenzae DILL AMP R. The following applies: code WW: Haemophilislnfluenzae DILL AMP R; BHI agar, 35-37° C., 20 to 24 hours; unit assumed. Here is the method: as §1, §2, §3
Test [2] relates to Micrococcusluteus ATCC 4698. Conditions: code PP: Micrococcusluteus ATCC 4698; BHI agar, 35-37° C., 20 to 24 hours; unit assumed. The procedure:
as §1, §2, §3

Test [3] relates to Mycobacterium smegmatis ATCC 114. Conditions: code UU: Mycobacterium smegmatis ATCC 114; BHI agar, 35-37° C., 20 to 24 hours; unit assumed. Here is the method: as §1, §2, §3
Test [4] concerns Nocardia Asteroides ATCC 99700. The following applies: code VV: Nocardia Asteroides ATCC 99700; BHI agar, 35-37° C., 20 to 24 hours; unit assumed. The procedure: as §1, §2, §3
Test [5] deals with Staphylococcus aureus 1775. Conditions: code GG: Staphylococcus aureus 1775; BHI agar, 35-37° C., 20 to 24 hours; unit assumed. The procedure: as §1, §2, §3
The test system of test [6] is Staphylococcus aureus A-5177. The following applies: code BB: Staphylococcus aureus A-5177; BHI agar, 35-37° C., 20 to 24 hours; unit assumed. The procedure: as §1, §2, §3
For test [7], the system named is Staphylococcus aureus A-5278. Conditions: code CC: Staphylococcus aureus A-5278; BHI agar, 35-37° C., 20 to 24 hours; unit assumed. Here is the method: as §1, §2, §3
The test system of test [8] is Staphylococcus aureus ATCC 6538P. Conditions: code AA: Staphylococcus aureus ATCC 6538P; BHI agar, 35-37° C., 20 to 24 hours; unit assumed. The procedure: as §1, §2, §3
For test [9], the system named is Staphylococcus aureus NCTC 10649M. The following applies: code EE: Staphylococcus aureus NCTC 10649M; BHI agar, 35-37° C., 20 to 24 hours; unit assumed. The procedure:
as §1, §2, §3

In test [10] the test system is Staphylococcus epidermidis 3519. The following applies: code HH: Staphylococcus epidermidis 3519; BHI agar, 35-37° C., 20 to 24 hours; unit assumed. The procedure:
as §1, §2, §3

In test [11] the test system is Streptococcus Pneumonia 5649. The following applies: code ZA: Streptococcus Pneumonia 5649; BHI agar, 35-37° C., 20 to 24 hours; unit assumed. Here is the method:
as §1, §2, §3

Test [12] deals with Streptococcus Pneumonia ATCC 6303. Conditions: code XX: Streptococcus Pneumonia ATCC 6303; BHI agar, 35-37° C., 20 to 24 hours; unit assumed. Here is the method:
as §1, §2, §3

In test [13] the test system is Streptococcus Pneumonia GYR 1171. The following applies: code YY: Streptococcus Pneumonia GYR 1171; BHI agar, 35-37° C., 20 to 24 hours; unit assumed. The procedure:
as §1, §2, §3

Test [14] concerns Streptococcus agalactiae CMX 508. The following applies: code KK: Streptococcus agalactiae CMX 508; BHI agar, 35-37° C., 20 to 24 hours; unit assumed. Here is the method: as §1, §2, §3
The subject of test [15] is Streptococcus bovis A-5169. The following applies: code JJ: Streptococcus bovis A-5169; BHI agar, 35-37° C., 20 to 24 hours; unit assumed. The procedure:
as §1, §2, §3

The subject of test [16] is Streptococcus pyogenes 930. The following applies: code MM: Streptococcus pyogenes 930; BHI agar, 35-37° C., 20 to 24 hours; unit assumed. Here is the method:
as §1, §2, §3

Test [17] deals with Streptococcus pyogenes EES61. Conditions: code LL: Streptococcus pyogenes EES61; BHI agar, 35-37° C., 20 to 24 hours; unit assumed. The procedure:
as §1, §2, §3

Test [18] relates to Streptococcus pyogenes PIU 2548. Conditions: code NN: Streptococcus pyogenes PIU 2548; BHI agar, 35-37° C., 20 to 24 hours; unit assumed. The procedure:
as §1, §2, §3

For test [19], the system named is Streptococcus Pneumonia 5979. Conditions: code ZZ: Streptococcus Pneumonia 5979; BHI agar, 35-37° C., 20 to 24 hours; unit assumed. Here is the method:
as §1
An additional plate containing a compound having known susceptibility patterns for the organisms being tested and belonging to the same antibiotic class as the test compound was also prepared and incubated as a further control, as well as to provide test-to-test comparability.
as §3

Turning to `CC[C@H]1OC(=O)[C@H](C)[C@@H](O[C@H]2C[C@@](C)(OC)[C@@H](O)[C@H](C)O2)[C@H](C)[C@@H](O[C@@H]2O[C@H](C)C[C@H](N(C)C)[C@H]2O)[C@](C)(O)C[C@@H](C)C(=O)[C@H](C)[C@@H](O)[C@]1(C)O` [Ery. A, Erythromycin A, reference compound], the Antibacterial Activity (MIC) in the test on Candida albicans CCH 442 is above 100 µg/mL; with Escherichiacoli JUHL it was above 100 µg/mL; in the test on Escherichiacoli SS it was 0.78 µg/mL; in test [1], 4 µg/mL; in [2] it was 0.2 µg/mL; in test [3], 3.1 µg/mL. Besides, the Antibacterial Activity (MIC) was 0.1 µg/mL in test [4]; above 100 µg/mL in test [5]; 3.1 µg/mL in test [6]; above 100 µg/mL in test [7]; 0.2 µg/mL in test [8]; 0.39 µg/mL in [9]. Also, the Antibacterial Activity (MIC) in test [10] was 0.39 µg/mL; in [11] it was 16 µg/mL; in test [12], 0.06 µg/mL; in test [13], 0.06 µg/mL; in [14], 0.05 µg/mL; in test [15] it was 0.02 µg/mL. Moreover, the Antibacterial Activity (MIC) in [16] is above 100 µg/mL; in test [17], 0.05 µg/mL; in test [18], 6.2 µg/mL.
For the compound `C=CCOC1(C)CC(C)CNC(C)C(O)C(C)(O)C(CC)OC(=O)C(C)C(OC2CC(C)(OC)C(O)C(C)O2)C(C)C1OC1OC(C)CC(N(C)C)C1O` (stereo not drawn) [Example 2, Compound of formula (I): R^1 is —CH2CH═CH2, R^4 is hydrogen, R^5 is hydrogen, R^6 is hydrogen, R^7 is hydrogen, R^8 is hydrogen], the Antibacterial Activity (MIC) is above 100 µg/mL in the test with Candida albicans CCH 442; 50 µg/mL with Escherichiacoli JUHL; 0.78 µg/mL with Escherichiacoli SS; 8 µg/mL in test [1]; 0.39 µg/mL in test [2]; 6.2 µg/mL in test [3]. Also, the Antibacterial Activity (MIC) in test [4] is 0.1 µg/mL; in test [5] it was above 100 µg/mL; in [6], 12.5 µg/mL; in test [7], above 100 µg/mL; in test [8], 0.2 µg/mL; in test [9], 0.39 µg/mL. The Antibacterial Activity (MIC) in test [10] amounted to 0.2 µg/mL; in test [11] it was 16 µg/mL; in [12], 0.06 µg/mL; in test [13] it was 0.06 µg/mL; in test [14] it was 0.05 µg/mL; in test [15], 0.02 µg/mL. Besides, the Antibacterial Activity (MIC) is above 100 µg/mL in [16], 0.05 µg/mL in [17], 6.2 µg/mL in test [18] and above 128 µg/mL in [19].
Regarding `C=CCOC1(C)CC(C)CN(C)C(C)C(O)C(C)(O)C(CC)OC(=O)C(C)C(OC2CC(C)(OC)C(O)C(C)O2)C(C)C1OC1OC(C)CC(N(C)C)C1O` (stereo not drawn) [Example 3, Compound of formula (I): R^1 is —CH2CH═CH2, R^4 is hydrogen, R^5 is hydrogen, R^6 is methyl, R^7 is hydrogen, R^8 is hydrogen], the Antibacterial Activity (MIC) with Candida albicans CCH 442 is above 100 µg/mL; in the test on Escherichiacoli JUHL, 50 µg/mL; in the test with Escherichiacoli SS, 0.39 µg/mL; in test [1] it was 8 µg/mL; in test [2] it was 0.39 µg/mL; in test [3] it was 6.2 µg/mL. The Antibacterial Activity (MIC) in test [4] was 0.1 µg/mL; in test [5] it was above 100 µg/mL; in test [6], 12.5 µg/mL; in [7] it was above 100 µg/mL; in [8], 0.2 µg/mL; in [9], 0.39 µg/mL. For the same compound, the Antibacterial Activity (MIC) in [10] stood at 0.39 µg/mL; in test [11], 8 µg/mL; in [12], 0.06 µg/mL; in [13] it was 0.06 µg/mL; in test [14] it was 0.1 µg/mL; in test [15], 0.05 µg/mL. The Antibacterial Activity (MIC) in test [16] was above 100 µg/mL; in test [17], 0.05 µg/mL; in [18], 6.2 µg/mL; in test [19], above 128 µg/mL.
Consider `C=CCOC1(C)CC(C)CN(C)C(C)C(O)C(C)(O)C(CC)OC(=O)C(C)C(O)C(C)C1OC1OC(C)CC(N(C)C)C1O` (stereo not drawn) [Example 4, Compound of formula (II): R^1 is —CH2CH═CH2, R^2 is hydrogen, R^3 is —OR^13, R^13 is hydrogen, R^4 is hydrogen, R^5 is hydrogen, R^6 is methyl, R^8 is hydrogen], for which the Antibacterial Activity (MIC) in the test with Candida albicans CCH 442 was above 100 µg/mL; in the test on Escherichiacoli JUHL, 50 µg/mL; in the test on Escherichiacoli SS it was 0.78 µg/mL; in test [1], 4 µg/mL; in test [2], 0.39 µg/mL; in test [3], 6.2 µg/mL. In addition, the Antibacterial Activity (MIC) in test [4] was 0.05 µg/mL; in [5], above 100 µg/mL; in [6] it was 6.2 µg/mL; in test [7], above 100 µg/mL; in test [8], 0.39 µg/mL; in test [9] it was 0.39 µg/mL. Also, the Antibacterial Activity (MIC) in test [10] is 0.39 µg/mL; in test [11], 8 µg/mL; in [12] it was 0.03 µg/mL; in [13], 0.03 µg/mL; in test [14] it was 0.05 µg/mL; in test [15], 0.02 µg/mL. The Antibacterial Activity (MIC) was above 100 µg/mL in test [16], 0.05 µg/mL in test [17], 6.2 µg/mL in test [18] and above 128 µg/mL in test [19].

The values above are taken from patent publication US6764996B1, “9a-azalides with antibacterial activity” (Abbott Laboratories, priority 1999, dated 2004).
